# Reference: US20210290784A1, “POSITRON EMISSION TOMOGRAPHY (PET) RADIOTRACERS FOR IMAGING MACROPHAGE COLONY-STIMULATING FACTOR 1 RECEPTOR (CSF1R) IN NEUROINFLAMMATION” (The Johns Hopkins University, priority 2018, published 2021)
# Assays:
# [1] = male, baboon, in vivo, 90 min
# CSF1R [2] = target: T1, CSF1R (Mus musculus, UniProt P09581); test: Brain uptake in microglia-depleted vs control mice; assay type: in vivo; set-up: from tissue; host or cells: brain of living CD-1, C57BL/6J, transgenic APP (AD model), EAE and CSF1R KO mice; settings: whole brain % SUV, 45 min, PLX3397 chow 290 mg/kg for 3 weeks
# T1 sequence (P09581 20-977): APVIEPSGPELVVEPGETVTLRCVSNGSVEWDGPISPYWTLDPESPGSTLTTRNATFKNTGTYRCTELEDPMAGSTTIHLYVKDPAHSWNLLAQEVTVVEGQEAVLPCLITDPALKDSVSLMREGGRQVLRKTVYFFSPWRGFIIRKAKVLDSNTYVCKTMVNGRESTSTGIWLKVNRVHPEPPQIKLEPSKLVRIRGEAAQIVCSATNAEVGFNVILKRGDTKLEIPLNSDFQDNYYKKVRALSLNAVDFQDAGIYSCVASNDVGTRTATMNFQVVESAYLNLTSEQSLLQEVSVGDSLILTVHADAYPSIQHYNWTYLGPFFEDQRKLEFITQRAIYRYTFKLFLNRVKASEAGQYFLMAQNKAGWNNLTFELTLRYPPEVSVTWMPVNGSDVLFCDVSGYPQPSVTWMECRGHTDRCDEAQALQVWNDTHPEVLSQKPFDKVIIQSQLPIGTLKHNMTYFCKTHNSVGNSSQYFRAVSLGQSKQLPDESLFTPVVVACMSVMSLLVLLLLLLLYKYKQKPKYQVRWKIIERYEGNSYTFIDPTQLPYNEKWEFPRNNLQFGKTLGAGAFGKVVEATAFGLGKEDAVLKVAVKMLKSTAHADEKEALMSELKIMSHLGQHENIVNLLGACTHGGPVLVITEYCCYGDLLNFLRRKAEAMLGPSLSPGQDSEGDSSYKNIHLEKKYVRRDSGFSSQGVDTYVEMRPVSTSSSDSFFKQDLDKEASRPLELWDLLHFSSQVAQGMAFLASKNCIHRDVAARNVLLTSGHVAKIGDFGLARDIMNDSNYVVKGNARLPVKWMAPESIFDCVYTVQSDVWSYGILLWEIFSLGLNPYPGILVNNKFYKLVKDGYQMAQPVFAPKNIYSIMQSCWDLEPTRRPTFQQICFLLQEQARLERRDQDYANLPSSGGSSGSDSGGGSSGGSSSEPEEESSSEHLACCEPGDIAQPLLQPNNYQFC
# Experimental: Male C57BL/6J mice (22-24 g) from Charles River Laboratories were purchased. […] The control C57BL/6J mice (5 animals) were fed with standard mouse chow for 3 weeks. On the last day of treatment, all animals were sacrificed by cervical dislocation at 45 min following injection of 5.0 MBq (0.135 mCi) [^11C]CPPC [specific radioactivity=475 GBq/μmol (12.8 Ci/μmol)] in 0.2 mL saline into a lateral tail vein. […] The outcome variables were calculated as % SUV.
# CSF1R [3] = target: T1, CSF1R
# CSF1R [4] = test: Brain uptake in CSF1R knock-out vs control mice; assay type: in vivo; settings: whole brain, 45 min
# Experimental: B6.Cg-Csf1rtml.2Jwp/J (CSF1R knock-out, KO) mice (21-23 g; age=four to eight weeks; Jackson Laboratories, Bar Harbor, Me.) (5 animals) and age-matched C57BL/6J controls (23-27 g) (5 animals) were used. […] The outcome variables were calculated as % SUV.
# [5] = Whole-body radiation dosimetry in mice, extrapolated to human; assay type: in vivo
# Experimental: Male CD-1 mice were injected with [^11C]CPPC as described above for baseline studies and were euthanized at 10, 30, 45, 60, and 90 min after treatment. The various organs were quickly removed and percentage injected dose (% ID) per organ was determined. The human radiation dosimetry of [^11C]CPPC was extrapolated from the mouse biodistribution data using SAAM II (Simulation Analysis and Modeling II) and OLINDA/EXM software. The data were analyzed commercially (RADAR, Inc).
# Radiation dosimetry for [^11C]CPPC was studied in fifteen male CD-1 mice (23-27 g) following our published procedure (Stabin M G, et al. (2005)). A solution of [^11C]CPPC in 0.2 ml of saline (7.4 MBq or 0.2 mCi) was injected as a bolus into the lateral tail vein, and groups of mice (n=3) were euthanized at 10, 30, 45, 60, and 90 min after the radiotracer injection. The lungs, heart, kidneys, liver, spleen, intestine, stomach, and brain were quickly removed and put on ice. One femur and samples of thigh muscle, bone marrow and blood were also collected. The organs were weighed, and the tissue radioactivity was measured with an automated gamma counter (LKB Wallac 1282 CompuGamma CS Universal Gamma Counter). The percent injected dose per organ (% ID/organ) was calculated by comparison with samples of a standard dilution of the initial dose. All measurements were corrected for decay. Resultant values of % ID/organ were fit using the SAAM II software (Foster D M (1998)). Time integrals of activity (Stabin M G and Siegel J A (2003)) were entered into the OLINDA/EXM software (Stabin M G, et al. (2005)), using the adult male model. […] The number of disintegrations in the remainder of body was assumed to be equal to 100% of the activity administered integrated to total decay of ^11C, minus the disintegrations in other body organs.
# [6] = two exponential fit of % ID/organ
smiles,measurement,setting,value
"[11CH3]N1CCN(c2ccc(NC(=O)c3ccc(C#N)o3)c(N3CCCCC3)c2)CC1 [[^11C]CPPC, 5-cyano-N-(4-(4-[^11C]methylpiperazin-1-yl)-2-(piperidin-1-yl)phenyl)furan-2-carboxamide]",total radiometabolites in blood,[1],71-76%
same,reduction in radiotracer uptake in microglia-depleted mouse brain vs controls,CSF1R [2],14%
same,ex vivo binding potential (BPex vivo),"CSF1R [3]; LPS mice, (LPS uptake-sham uptake)/sham uptake",0.53-0.62
same,SUVR uptake in i.p.-LPS mice vs controls,"CSF1R [3]; experiments 2 and 3, blood-corrected, 45 min",significantly greater
same,"blocking with nonradiolabeled CPPC, % SUV radioactivity (experiment 1)","CSF1R [3]; i.p.-LPS mice, CPPC 1 mg/kg IP, no blood correction",did not cause a significant reduction
same,specific fraction of whole-brain binding,"CSF1R [3]; i.p.-LPS mice, blocking with CPPC and compound 8",more than 50%
same,brain uptake (% SUV) in CSF1R KO mouse brain vs. controls,CSF1R [4],comparable
same,Activity observed in the intestines,[5]; CD-1 mice,~35%
same,radiation burden to a human subject vs FDA limit,[5]; proposed dose of 740 MBq (20 mCi),< 5 Rem
same,"fitted metabolic model, Brain, first component %",[5]; [6],3.83%
same,"fitted metabolic model, Brain, first component T-bio",[5]; [6],0.302 h
same,"fitted metabolic model, Brain, second component %",[5]; [6],0.38%
same,"fitted metabolic model, Brain, second component T-bio",[5]; [6],∞
same,"fitted metabolic model, Heart, first component %",[5]; [6],1.00%
same,"fitted metabolic model, Heart, first component T-bio",[5]; [6],0.272 h
same,"fitted metabolic model, Heart, second component %",[5]; [6],0.14%
same,"fitted metabolic model, Heart, second component T-bio",[5]; [6],∞
same,"fitted metabolic model, Kidneys, first component %",[5]; [6],8.32%
same,"fitted metabolic model, Kidneys, first component T-bio",[5]; [6],0.297 h
same,"fitted metabolic model, Kidneys, second component %",[5]; [6],1.52%
same,"fitted metabolic model, Kidneys, second component T-bio",[5]; [6],∞
same,"fitted metabolic model, Liver, first component %",[5]; [6],97.6%
same,"fitted metabolic model, Liver, first component T-bio",[5]; [6],0.764 h
same,"fitted metabolic model, Liver, second component %",[5]; [6],−100%
same,"fitted metabolic model, Liver, second component T-bio",[5]; [6],0.335 h
same,"fitted metabolic model, Lungs, first component %",[5]; [6],8.27%
same,"fitted metabolic model, Lungs, first component T-bio",[5]; [6],0.159 h
same,"fitted metabolic model, Lungs, second component %",[5]; [6],1.53%
same,"fitted metabolic model, Lungs, second component T-bio",[5]; [6],2.27 h
same,"fitted metabolic model, Spleen, first component %",[5]; [6],1.43%
same,"fitted metabolic model, Spleen, first component T-bio",[5]; [6],0.823 h
same,"fitted metabolic model, Spleen, second component %",[5]; [6],−1.24%
same,"fitted metabolic model, Spleen, second component T-bio",[5]; [6],0.145 h
